Results on one compound are retold here after patent publication US20050119275A1, “Salt and crystal forms of (5-chloro-2-{2-[4-(4-fluoro-benzyl)-(2R,5S)-2,5-dimethyl-piperazin-1-yl]-2-oxo-ethoxy}-phenyl)-methanesulfonic acid” (Pfizer Inc., priority 2003, published 2005).

Test [1] concerns the target T1, CCR1 (Homo sapiens, UniProt P32246).
T1 sequence (P32246 1-355): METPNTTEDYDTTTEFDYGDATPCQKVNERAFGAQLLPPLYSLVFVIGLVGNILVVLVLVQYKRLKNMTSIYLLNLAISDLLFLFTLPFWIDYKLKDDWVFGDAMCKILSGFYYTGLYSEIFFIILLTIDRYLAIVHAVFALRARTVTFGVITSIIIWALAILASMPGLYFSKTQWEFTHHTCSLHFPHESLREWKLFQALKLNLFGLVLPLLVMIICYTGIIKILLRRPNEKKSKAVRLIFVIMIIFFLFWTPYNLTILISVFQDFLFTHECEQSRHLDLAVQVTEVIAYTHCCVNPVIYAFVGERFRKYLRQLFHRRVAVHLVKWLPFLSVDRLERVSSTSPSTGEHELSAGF
The test can be described thus: Inhibition of MIP-1α (CCL3) binding to its receptor CCR1. The note with it: CCR1 found on inflammatory and immunomodulatory cells; statement in words.

Test [2] deals with T1, CCR1. In words: Chemotaxis assay (Boyden chamber, MIP-1α induced migration). In kind it is cell-based. The arrangement: THP-1 cells (ATCC TIB-202), primary human monocytes, or primary lymphocytes, isolated by standard techniques can then be added to the upper chambers; endogenous in cells; host or cells: THP-1 cells (ATCC TIB-202), primary human monocytes or primary lymphocytes. The note with it: statement in words. An excerpt:
The activity of the compounds of the invention can be assessed according to procedures know to those of ordinary skill in the art. Examples of recognized methods for determining CCR1 induced migration can be found in Coligan, J. E., Kruisbeek, A. M., Margulies, D. H., Shevach, E. M., Strober, W. editors: Current Protocols In Immunology, 6.12.1-6.12.3. (John Wiley and Sons, NY, 1991). One specific example of how to determine the activity of a compound for inhibiting migration is described in detail below.
The ability of compounds to inhibit the chemotaxis to various chemokines can be evaluated using standard 48 or 96 well Boyden Chambers with a 5 micron polycarbonate filter. […] The amount of agonist chosen is that determined to give the maximal amount of chemotaxis in this system (e.g., 1 nM for MIP-1α should be adequate). […]
After a suitable incubation period at 37 degrees centigrade (e.g. 3.5 hours for THP-1 cells, 90 minutes for primary monocytes), the chamber is removed, the cells in the upper chamber aspirated, the upper part of the filter wiped and the number of cells migrating can be determined according to the following method.
For THP-1 cells, the chamber (a 96 well variety manufactured by Neuroprobe) can be centrifuged to push cells off the lower chamber and the number of cells can be quantitated against a standard curve by a color change of the dye fluorocein diacetate. […]

On to `C[C@@H]1CN(Cc2ccc(F)cc2)[C@@H](C)CN1C(=O)COc1ccc(Cl)cc1CS(=O)(=O)O` [(5-Chloro-2-{2-[4-(4-fluoro-benzyl)-(2R,5S)-2,5-dimethyl-piperazin-1-yl]-2-oxo-ethoxy}-phenyl)-methanesulfonic acid], for which, at CCR1 [1], the “inhibition of MIP-1α (CCL3) binding to its receptor CCR1” value is recorded as “potent inhibitor”. Further, on CCR1 [2], the “inhibition of MIP-1α (and related chemokines) induced chemotaxis of THP-1 cells and human leukocytes” value is given as “inhibits”.
